# Assay results: PubChem BioAssay (NCI)
#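 Test compounds were applied to cells in 96-well plates for 48 hours at 5 doses. TGI is the concentration that stops growth completely.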 Where a SMILES comes first, the peptide text is derived from it. [ ]: non-standard residue; d: D form. The star is where a group is joined. NMeF = CN[CH](Cc1ccccc1)C(=O)O; NMeV = CN[CH](C(=O)O)C(C)C; Boc = CC(C)(C)OC(=O)*; OBn = c1ccc(CO*)cc1
# Columns and labels:
# Assay in all cases: DTP human tumour cell line panel, 48 h
# [1] = tested on: SF-295 CNS
# [2] = tested on: ACHN renal
# [3] = tested on: CAKI-1 renal
# [4] = tested on: A498 renal
# [5] = tested on: SF-268 CNS
# [6] = tested on: HOP-92 NSCLC
# [7] = tested on: A549 NSCLC
# [8] = tested on: T-47D breast
# [9] = tested on: PC-3 prostate
# [10] = tested on: OVCAR-3 ovarian
SMILES,TGI [1],TGI [2],TGI [3],TGI [4],TGI [5],TGI [6],TGI [7],TGI [8],TGI [9],TGI [10]
CC(=O)c1ccc(NC(=O)/C(=N\NC(N)=O)C(C#N)CC(C)(C)C=O)cc1 (stereo not drawn),> 100 µM,> 100 µM,> 100 µM,> 100 µM,> 100 µM,> 100 µM,> 100 µM,–,–,–
COc1ccc(N2CCN(c3ccc4c(c3)NCC(=O)N4)CC2)cc1,> 100 µM,> 100 µM,> 100 µM,–,> 100 µM,63.5 µM,> 100 µM,33.4 µM,> 100 µM,> 100 µM
O=C(NN=C1CCCCC1)Nc1ccccc1Cl,> 100 µM,> 100 µM,> 100 µM,–,> 100 µM,94.3 µM,> 100 µM,> 100 µM,> 100 µM,38.8 µM
COc1ccc(C2C(C(=O)O)=C(COC(C)=O)Oc3cc4c(cc32)OCO4)cc1 (stereo not drawn),> 100 µM,> 100 µM,> 100 µM,–,–,> 100 µM,> 100 µM,–,–,> 100 µM
C=C1C(=O)[C@]23[C@H](O)[C@H]1CC[C@H]2[C@@]12CO[C@@]3(O)C[C@@H]1C(C)(C)CC[C@@H]2O,> 25 µM,18.9 µM,> 25 µM,20.1 µM,20.9 µM,> 25 µM,> 25 µM,–,> 25 µM,> 25 µM
Cc1nc2ccccc2c(=O)n1NC(=O)Cc1ccccc1,> 100 µM,> 100 µM,–,> 100 µM,> 100 µM,> 100 µM,> 100 µM,> 100 µM,> 100 µM,> 100 µM
FC1CCN(C2(c3cccs3)CCCCC2)CC1,> 100 µM,> 100 µM,> 100 µM,> 100 µM,–,> 100 µM,> 100 µM,> 100 µM,> 100 µM,> 100 µM
CC(=O)c1ccc2c(c1)oc(=O)n2CCN(C)C,> 100 µM,> 100 µM,> 100 µM,> 100 µM,> 100 µM,–,–,–,> 100 µM,> 100 µM
CCC(=N\NC(N)=S)/C(C)=N/O,> 100 µM,> 100 µM,> 100 µM,–,> 100 µM,> 100 µM,> 100 µM,> 100 µM,> 100 µM,> 100 µM
CC[C@@]1(O)C(=O)OCc2c1cc1n(c2=O)Cc2c-1nc1ccccc1c2/C=N\NC(=O)C(N)CS (stereo partly drawn),> 33.9 µM,–,> 91.3 µM,23 µM,> 100 µM,> 57.1 µM,> 100 µM,–,> 100 µM,> 100 µM
CC(NC(=O)C(C)C(=O)NCc1ccc(C(F)(F)F)cc1)C(N)=O (stereo not drawn),> 100 µM,> 100 µM,> 100 µM,–,> 100 µM,> 100 µM,> 100 µM,> 100 µM,> 100 µM,–
Clc1ccc(OCC2NC3C=CC32)cn1 (stereo not drawn),> 100 µM,> 100 µM,> 100 µM,–,> 100 µM,> 100 µM,> 100 µM,> 100 µM,> 100 µM,> 100 µM
CC(C)C(NC(=O)OC(C)(C)C)C(=O)N(C)C(Cc1ccccc1)C(=O)N(C)C(C(=O)N(C)C(C(=O)OCc1ccccc1)C(C)C)C(C)C (stereo not drawn) (Boc-V[NMeF][NMeV][NMeV]-OBn; configuration not given here),> 100 µM,> 100 µM,–,–,> 100 µM,–,> 100 µM,–,–,> 100 µM
Cc1cc(S(=O)(=O)O)ccc1N=Nc1ccc(N=Nc2c(O)ccc3ccccc23)c(C)c1,> 100 µM,> 100 µM,> 100 µM,–,> 100 µM,> 100 µM,> 100 µM,> 100 µM,> 100 µM,> 100 µM
CC1NOC(NS(=O)(=O)c2ccc(N=Nc3c(O)c(C(=O)O)cc4ccccc34)cc2)C1C (stereo not drawn),> 100 µM,> 100 µM,> 100 µM,–,> 100 µM,> 100 µM,> 100 µM,–,> 100 µM,> 100 µM
O=c1c2c([nH]c3cc4c(cc13)OCO4)-c1ccccc1CCC2,> 50 µM,> 50 µM,> 50 µM,> 50 µM,> 50 µM,> 50 µM,> 50 µM,–,> 50 µM,> 50 µM
c1ccc(C(CCN2CCCC2)c2ccccn2)cc1 (stereo not drawn),> 100 µM,> 100 µM,> 100 µM,> 100 µM,> 100 µM,> 100 µM,> 100 µM,> 100 µM,> 100 µM,–
CCN(CC)C(=O)c1c(N2CCOCC2)cc(N(CC)CC)oc1=O,> 100 µM,> 100 µM,–,> 100 µM,> 100 µM,> 100 µM,> 100 µM,–,–,> 100 µM
Cc1ccc(NC(=O)c2cccc([N+](=O)[O-])c2O)c(C)c1,74.3 µM,89.5 µM,79.8 µM,63.5 µM,> 100 µM,–,63.8 µM,–,–,> 100 µM
Cc1ccc([N+](=O)[O-])cc1S(=O)(=O)Nc1ccc(C2=NN(c3ccc([N+](=O)[O-])cc3[N+](=O)[O-])C(c3ccccc3O)C2)cc1 (stereo not drawn),> 100 µM,> 100 µM,> 100 µM,–,> 100 µM,> 100 µM,> 100 µM,> 100 µM,> 100 µM,61.3 µM
C/C=C/C=C/C1=NN(c2cccc(S(=O)(=O)O)c2)C2(C1)SCC(=O)N2c1nc2ccccc2s1 (stereo not drawn),–,> 100 µM,> 100 µM,> 100 µM,> 100 µM,> 100 µM,> 100 µM,> 100 µM,> 100 µM,–
CN(C)CCCNC(=O)c1cc(NC(=O)c2cc(NC(=O)c3cc(NC(=O)CCCn4ccc(CO)c4CO)cn3C)cn2C)cn1C,–,> 100 µM,> 100 µM,–,> 100 µM,> 100 µM,75.4 µM,> 100 µM,> 100 µM,44.7 µM
C=C1c2nc3ccccc3n2C=C(c2ccc(Cl)cc2)N1c1ccccc1,24 µM,24.8 µM,39.4 µM,> 100 µM,–,> 100 µM,27.1 µM,–,> 100 µM,38.5 µM
N#CSCC1COc2ccccc2O1 (stereo not drawn),> 10 µM,> 10 µM,> 10 µM,> 10 µM,> 10 µM,–,> 10 µM,> 10 µM,> 10 µM,> 10 µM
ClCc1c(-c2ccccc2)nn(-c2ccccc2)c1CCl,32.8 µM,–,3.71 µM,–,43.6 µM,7.69 µM,37.3 µM,5.96 µM,21.4 µM,26.3 µM
